From patent publication US20180066241A1, “PRO-APOPTOTIC SET AND PP2A PEPTIDES” (Universite Pierre Et Marie Curie (Paris 6), priority 2015, published 2018) come the findings set out here.

One experiment has as its target SET protein (Homo sapiens, UniProt Q01105). Kind of experiment: Binding assay on cellulose-bound overlapping PP2Ac peptides incubated with SET protein. To be noted: four overlapping dodecapeptides, anti-SET antibody, ECL detection. As to the method:
(§1) FIG. 1A and 1B show determination of the binding site of PP2A to SET and vice versa. A) Overlapping dodecapeptides with two amino acid shift covering the whole PP2A protein were bound to a solid support. The membrane was incubated sequentially with SET protein, and anti-SET antibody, followed by a peroxidase-labeled secondary antibody. […] The sequence corresponding to the identified spots is shown. B) Overlapping dodecapeptides with two amino acid shift covering the whole human SET protein were bound to a solid support. The membrane was incubated sequentially with PP2A protein, and anti-PP2A antibody, followed by a peroxidase-labeled secondary antibody. […] The sequence corresponding to the identified spots is shown.
(§2) Overlapping peptides covering the whole human PP2Ac or SET sequence were prepared by automated spot synthesis (Abimed, Langerfeld, Germany) onto an amino-derived cellulose membrane, as described (Frank and Overwin, 1996; Gausepohl et al. 1992). The membranes were blocked, incubated with purified recombinant SET or PP2A protein, after several washing steps, incubated with anti-SET2 (Bethyl Laboratories) or anti-PP2Ac antibody (Santa Cruz), and followed by PO-conjugated secondary antibody. Protein interactions were visualized using ECL system (Pierce). […]

The target in another experiment is PP2Ac protein (Homo sapiens, UniProt P67775). Kind of experiment: Binding assay on cellulose-bound overlapping SET peptides incubated with PP2A protein. To be noted: six overlapping dodecapeptides, anti-PP2Ac antibody, ECL detection. As to the method:
as §1, §2

The next experiment concerns H1975 cell line. Kind of experiment: Detection of apoptosis by Annexin-V-FITC staining, H1975. The experiment is classed as cell-based, Human. Particulars: H1975 cells, peptide 100 μM for 24 h, compared to control non treated cells. The protocol:
(§3) H1975 and H1299 cell lines were cultured in the presence or in the absence (control) of the Mut3DPT-PP2Ac peptide at a concentration of 100 μM for 24 h. Apoptosis was detected by Annexin V-FITC staining and analyzed by flow cytometry. Mut3-DPT-PP2A is VKKKKIKAEIKI-ETVTLLVALKVRYRERIT (SEQ ID NO: 32).
(§4) Human non small cell lung carcinoma cell lines H1975 and H1299, as well as breast cancer cell line MDA-MB231 were cultured in DMEM (Gibco Life technologies) medium supplemented with 10% FCS.
(§5) Apopotic cells were detected using Annexin-V (-FITC from BD biosciences) as described by the manufacturer. Briefly, the cells were washed in lx binding buffer, centrifugated and then resuspended in 200 μL of 1× binding buffer containing Annexin V-FITC and propidium iodide (PI). After incubation at room temperature in the dark for 10 min, cells were analyzed with FACS Calibur cytofluometer (BD Biosciences).
(§6) The effect of peptides treatment was compared to untreated cells. The peptides were used at 100 μM for 24 h.

For a further experiment, the system named is H1299 cell line. Kind of experiment: Detection of apoptosis by Annexin-V-FITC staining, H1299. In kind it is cell-based, Human. To be noted: H1299 cells, peptide 100 μM for 24 h, compared to control non treated cells. As to the method: as §3, §4, §5, §6
In the next experiment the test system is Daudi cell line. Description: Detection of apoptosis by Annexin-V-FITC staining, Daudi. In kind it is cell-based, Human. Particulars: Daudi cells, peptide 100 μM for 24 h, compared to control non treated cells. The protocol: (§7) Daudi, Raji and Jok 1 cell lines were cultured in the presence or in the absence (control) of the Mut3DPT-PP2A peptide at a concentration of 100 μM for 24 h. Apoptosis was detected by Annexin V-FITC staining and analyzed by flow cytometry. Mut3-DPT-PP2A is VKKKKIKAEIKI-ETVTLLVALKVRYRERIT (SEQ ID NO: 32).
(§8) Human B lymphoblast Daudi cell line, human lymphoblast-like Raji cell line and a Hairy cell leukemia-derived cell line Jok1 were cultured in DMEM (Gibco Life technologies) medium supplemented with 10% FCS.
(§9) Apopotic cells were detected using Annexin-V (-FITC from BD biosciences) as described above.
(§10) The effect of Mut3DPT-PP2Ac peptide treatment was compared to untreated cells. The peptides were used at 100 μM for 24 h.

The next experiment has as its system Raji cell line. Description: Detection of apoptosis by Annexin-V-FITC staining, Raji. In kind it is cell-based, Human. To be noted: Raji cells, peptide 100 μM for 24 h, compared to control non treated cells. The protocol:
as §7, §8, §9, §10

The next experiment relates to Jok1 cell line. Kind of experiment: Detection of apoptosis by Annexin-V-FITC staining, Jok1. The experiment is classed as cell-based, Human. Particulars: Jok1 cells, peptide 100 μM for 24 h, compared to control non treated cells. As to the method: as §7, §8, §9, §10
In another experiment the test system is MDA-MB231 cell line. Kind of experiment: Detection of apoptosis by Annexin-V-FITC staining, MDA-MB231. In kind it is cell-based, Human. To be noted: MDA-MB231 cells, peptide 100 μM for 24 h, compared to control non treated cells. As to the method:
MDA-MB231 cell line was cultured in the presence or in the absence (control) of the Mut3DPT-SET peptide at a concentration of 100 μM for 24 h. Apoptosis was detected by Annexin V-FITC staining and analyzed by flow cytometry. Mut3-DPT-SET is VKKKKIKAEIKI-[…] (SEQ ID NO: 33).
as §4, §5, §6

SET protein, sequence (Q01105 1-277 isoform Q01105-2): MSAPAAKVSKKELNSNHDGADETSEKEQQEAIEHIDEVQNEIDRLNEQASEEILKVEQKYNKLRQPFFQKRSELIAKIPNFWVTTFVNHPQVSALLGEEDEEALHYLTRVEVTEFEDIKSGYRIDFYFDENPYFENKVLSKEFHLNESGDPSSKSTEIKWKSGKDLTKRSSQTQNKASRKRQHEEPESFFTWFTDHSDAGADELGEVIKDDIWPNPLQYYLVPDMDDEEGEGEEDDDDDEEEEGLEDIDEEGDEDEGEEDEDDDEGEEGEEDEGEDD
PP2Ac protein, sequence (P67775 whole entry): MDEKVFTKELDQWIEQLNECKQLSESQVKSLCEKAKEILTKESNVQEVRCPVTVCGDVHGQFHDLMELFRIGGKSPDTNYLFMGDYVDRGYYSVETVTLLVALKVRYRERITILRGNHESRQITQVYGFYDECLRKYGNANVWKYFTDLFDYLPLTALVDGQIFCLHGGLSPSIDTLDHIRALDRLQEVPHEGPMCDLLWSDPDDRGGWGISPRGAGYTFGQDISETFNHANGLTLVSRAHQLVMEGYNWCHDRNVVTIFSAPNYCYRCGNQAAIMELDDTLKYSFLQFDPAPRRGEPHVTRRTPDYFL

With “ETVTLLVALKVRYRERIT (Synthetic peptide PP2Ac) [SEQ ID NO: 1]”, the “binding of SET protein to cellulose-bound PP2Ac sequence” value in the experiment with SET protein is listed as “bound by SET protein”.

Turning to “PSSKSTEIKWKSGKDLTKRSSQ (Synthetic peptide SET) [SEQ ID NO: 2]”, the “binding of PP2Ac protein to cellulose-bound SET sequence” value with PP2Ac protein is given as “bound by PP2Ac protein”.

With “VKKKKIKAEIKI-ETVTLLVALKVRYRERIT (VKKKKIKAEIKIETVTLLVALKVRYRERIT) [Mut3DPT-PP2Ac]”, the “apoptosis (Annexin V-FITC staining, flow cytometry)” value in the experiment with H1975 cell line is listed as “has apoptotic effect”; in the experiment with H1299 cell line, “has apoptotic effect”; with Daudi cell line, “has an apoptotic effect”; in the experiment with Raji cell line, “has an apoptotic effect”; in the experiment on Jok1 cell line it was “has an apoptotic effect”.

Turning to “VKKKKIKAEIKI-PSSKSTEIKWKSGKDLTKRSSQ (VKKKKIKAEIKIPSSKSTEIKWKSGKDLTKRSSQ) [Mut3DPT-SET]”, the “apoptosis (Annexin V-FITC staining, flow cytometry)” value with MDA-MB231 cell line is listed as “slight apoptosis increase”.
